In patent US11285156B2, “Substituted piperazines as KRAS G12C inhibitors” (Amgen Inc., priority 2018, dated 2022):
Read-outs that look alike come from different tables or passages of the source.

Assays:
[1] = target: GDP-bound KRAS protein (aa 1-169), containing both G12C and C118A amino acid substitutions (Homo sapiens (Human), UniProt P01116, C118A/G12C); experiment: Coupled nucleotide exchange assay (SOS-mediated nucleotide exchange, AlphaScreen); format: biochemical; conditions: 5 min compound pre-incubation; for IC50: read-out: Coupled exchange IC50 (5 min; μM)
[2] = system: Phosphorylation of ERK1/2 in MIA PaCa-2 cells; experiment: Phospho-ERK1/2 MSD assay in MIA PaCa-2 cells; format: cell-based; conditions: read-out: p-ERK IC50 (2 h, MiaPaCa-2; μM), 2 h compound treatment, MIA PaCa-2 cells, EGF stimulated
In short: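 Phospho-ERK1/2 measured by MSD electrochemiluminescence kit in RIPA lysates of MIA PaCa-2 cells. Cells were treated with compound titrations for 2 or 4 h at 37 °C, 5% CO2, followed by a 10 min pulse of 10 ng/mL EGF.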

[3] = system: Phosphorylation of ERK1/2 in A549 cells; experiment: Phospho-ERK1/2 MSD assay in A549 cells; format: cell-based; conditions: read-out: p-ERK IC50 (2 h, A549; μM), 2 h compound treatment, A549 cells, EGF stimulated
In short: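 Dose-response treatment lasted 2 or 4 h in RPMI 1640/10% FBS at 37 °C. EGF-stimulated (10 ng/mL, 10 min) ERK1/2 phosphorylation was then quantified in cell lysates with a Meso Scale Discovery phospho-ERK1/2 assay.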

GDP-bound KRAS protein (aa 1-169), containing both G12C and C118A amino acid substitutions, sequence (P01116 other isoform, or with tags, fused parts or gaps G12C/C118A): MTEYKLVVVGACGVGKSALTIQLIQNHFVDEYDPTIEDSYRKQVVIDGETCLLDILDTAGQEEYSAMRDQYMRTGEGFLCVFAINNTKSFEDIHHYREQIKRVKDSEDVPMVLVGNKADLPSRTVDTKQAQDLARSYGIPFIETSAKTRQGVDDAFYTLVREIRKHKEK

Row | SMILES | IC50 [1] [µM] | IC50 ([2]; Homo sapiens, MIA PaCa-2, 2 h) [µM] | IC50 ([3]; Homo sapiens, A549, 2 h) [µM] | Coupled exchange IC50 (5 min; μM) [1] [µM] | IC50 [2] [µM] | IC50 [3] [µM]
1 | C=CC(=O)N1C[C@H](C)N(c2nc(=O)n(-c3c(C(C)C)ncnc3C(C)C)c3nc(-c4ccccc4C(F)(F)F)c(Cl)cc23)C[C@H]1C [Example 172, 6-Chloro-1-(4,6-diisopropylpyrimidin-5-yl)-4-[(2S,5R)-2,5-dimethyl-4-prop-2-enoyl-piperazin-1-yl]-7-[2-(trifluoromethyl)phenyl]pyrido[2,3-d]pyrimidin-2-one] | 0.08 | 0.099 | > 7.5 | – | – | –
2 | C=CC(=O)N1C[C@H](C)N(c2nc(=O)n(-c3c(C(C)C)ncnc3C(C)C)c3nc(-c4cc(O)ccc4C)c(Cl)cc23)C[C@H]1C [Example 174, 6-Chloro-1-(4,6-diisopropylpyrimidin-5-yl)-4-[(2S,5R)-2,5-dimethyl-4-prop-2-enoyl-piperazin-1-yl]-7-(5-hydroxy-2-methyl-phenyl)pyrido[2,3-d]pyrimidin-2-one] | – | 0.082 | > 7.5 | 0.069 | – | –
3 | C=CC(=O)N1CCN(c2nc(CN3CCOCC3)c(-c3ccccc3C(C)C)c3nc(-c4ccccc4F)c(Cl)cc23)CC1 [Example 181, 1-(4-(3-Chloro-2-(2-fluorophenyl)-8-(2-isopropylphenyl)-7-(morpholinomethyl)-1,6-naphthyridin-5-yl)piperazin-1-yl)prop-2-en-1-one] | 4.53 | 10 | > 7.5 | – | – | –
4 | C=CC(=O)N1C[C@H](C)N(c2nc(=N)n(-c3ccccc3C(C)C)c3nc(-c4ccccc4F)c(Cl)cc23)C[C@H]1C [Example 185, 1-((2R,5S)-4-(6-Chloro-7-(2-fluorophenyl)-2-imino-1-(2-isopropylphenyl)-1,2-dihydropyrido[2,3-d]pyrimidin-4-yl)-2,5-dimethylpiperazin-1-yl)prop-2-en-1-one] | 0.055 | 0.08 | > 7.5 | – | – | –
5 | C=CC(=O)N1C[C@H](C)N(c2nc(=O)n(-c3ccccc3C(C)C)c3nc(-c4ccccc4F)c(Cl)cc23)C[C@H]1C [Example 186, 4-((2S,5R)-4-Acryloyl-2,5-dimethylpiperazin-1-yl)-6-chloro-7-(2-fluorophenyl)-1-(2-isopropylphenyl)pyrido[2,3-d]pyrimidin-2(1H)-one] | 0.093 | 0.199 | > 7.5 | – | – | –
6 | C=CC(=O)N1C[C@H](C)N(c2nc(=O)n(-c3c(C(C)C)nc(N(C)C(C)=O)nc3C(C)C)c3nc(-c4ccccc4F)c(Cl)cc23)C[C@H]1C [Example 187, N-[5-[6-Chloro-4-[(2S,5R)-2,5-dimethyl-4-prop-2-enoyl-piperazin-1-yl]-7-(2-fluorophenyl)-2-oxo-pyrido[2,3-d]pyrimidin-1-yl]-4,6-diisopropyl-pyrimidin-2-yl]-N-methyl-acetamide] | – | 0.081 | 0.317 | 0.09 | – | –
7 | C=CC(=O)N1C[C@H](C)N(c2nc(=O)n(-c3c(C(C)C)nc(NC(C)=O)nc3C(C)C)c3nc(-c4ccccc4F)c(Cl)cc23)C[C@H]1C [Example 188, N-[5-[6-Chloro-4-[(2S,5R)-2,5-dimethyl-4-prop-2-enoyl-piperazin-1-yl]-7-(2-fluorophenyl)-2-oxo-pyrido[2,3-d]pyrimidin-1-yl]-4,6-diisopropyl-pyrimidin-2-yl]acetamide] | – | 0.04 | 4.98 | 0.038 | – | –
8 | C=CC(=O)N1C[C@H](C)N(c2nc(=O)n(-c3c(N)ncnc3C(C)C)c3nc(-c4ccccc4F)c(Cl)cc23)C[C@H]1C [Example 189, 4-((2S,5R)-4-Acryloyl-2,5-dimethylpiperazin-1-yl)-1-(4-amino-6-isopropylpyrimidin-5-yl)-6-chloro-7-(2-fluorophenyl)pyrido[2,3-d]pyrimidin-2(1H)-one] | 0.158 | 0.209 | > 7.5 | – | – | –
9 | C=CC(=O)N1C[C@H](C)N(c2nc(=O)n(-c3c(N)ncnc3C(C)C)c3nc(-c4c(O)cccc4F)c(Cl)cc23)C[C@H]1C [Example 190, 4-((2S,5R)-4-Acryloyl-2,5-dimethylpiperazin-1-yl)-1-(4-amino-6-isopropylpyrimidin-5-yl)-6-chloro-7-(2-fluoro-6-hydroxyphenyl)pyrido[2,3-d]pyrimidin-2(1H)-one] | – | 1.71 | > 7.5 | 0.126 | – | –
10 | C=CC(=O)N1C[C@H](C)N(c2nc(=O)n(-c3c(N)ncnc3C(C)C)c3nc(-c4c(N)cccc4F)c(Cl)cc23)C[C@H]1C [Example 192, 4-((2S,5R)-4-Acryloyl-2,5-dimethylpiperazin-1-yl)-7-(2-amino-6-fluorophenyl)-1-(4-amino-6-isopropylpyrimidin-5-yl)-6-chloropyrido[2,3-d]pyrimidin-2(1H)-one] | – | 0.161 | > 7.5 | 0.029 | – | –
11 | C=CC(=O)N1C[C@H](C)N(c2nc(=O)n(-c3c(C)nc(C)nc3C(C)C)c3nc(-c4ccccc4F)c(Cl)cc23)C[C@H]1C [Example 193, 4-((2S,5R)-4-Acryloyl-2,5-dimethylpiperazin-1-yl)-6-chloro-7-(2-fluorophenyl)-1-(4-isopropyl-2,6-dimethylpyrimidin-5-yl)pyrido[2,3-d]pyrimidin-2(1H)-one] | 0.056 | 0.055 | > 7.5 | – | – | –
12 | C=CC(=O)N1C[C@H](C)N(c2nc(=O)n(-c3c(C)ncnc3C(C)C)c3nc(-c4ccccc4F)c(Cl)cc23)C[C@H]1C [Example 194, 4-((2S,5R)-4-Acryloyl-2,5-dimethylpiperazin-1-yl)-6-chloro-7-(2-fluorophenyl)-1-(4-isopropyl-6-methylpyrimidin-5-yl)pyrido[2,3-d]pyrimidin-2(1H)-one] | 0.186 | 0.048 | > 7.5 | – | – | –
13 | C=CC(=O)N1C[C@H](C)N(c2nc(=O)n(-c3c(C(C)C)cnnc3C(C)C)c3nc(-c4ccccc4F)c(Cl)cc23)C[C@H]1C [Example 205, 4-((2S,5R)-4-Acryloyl-2,5-dimethylpiperazin-1-yl)-6-chloro-1-(3,5-diisopropylpyridazin-4-yl)-7-(2-fluorophenyl)pyrido[2,3-d]pyrimidin-2(1H)-one] | 0.08 | 0.095 | > 7.5 | – | – | –
14 | C=CC(=O)N1[C@H](C)CN(c2nc(=O)n(-c3c(C(C)C)cnnc3C(C)C)c3nc(-c4ccccc4F)c(Cl)cc23)C[C@@H]1C [Example 206-2, 4-(cis-4-Acryloyl-3,5-dimethylpiperazin-1-yl)-6-chloro-1-(3,5-diisopropylpyridazin-4-yl)-7-(2-fluorophenyl)pyrido[2,3-d]pyrimidin-2(1H)-one] | – | – | – | 0.098 | 0.139 | > 7.5
15 | C=CC(=O)N1C[C@H](C)N(c2nc(=O)n(-c3ccc(S(C)(=O)=O)cc3C(C)C)c3nc(-c4ccccc4F)c(Cl)cc23)C[C@H]1C [Example 208, 4-((2S,5R)-4-Acryloyl-2,5-dimethylpiperazin-1-yl)-6-chloro-7-(2-fluorophenyl)-1-(2-isopropyl-4-(methylsulfonyl)phenyl)pyrido[2,3-d]pyrimidin-2(1H)-one] | – | 0.14 | > 7.5 | 0.231 | – | –
